In patent publication US20240116985A1, “STAPLED PEPTIDES AND METHODS THEREOF” (priority 2020, published 2024):
≈ marks a conversion by molar mass, not a printed value. Like-named read-outs stand apart in the source and are kept apart here.

Experiments:
[1] = CHI Log D procedure; type: physicochemical
[2] = Solubility in PBS; type: physicochemical
Procedure, shortened: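 PBS sample ultracentrifuged; supernatant run on HPLC vs. 50 μM peptide in DMSO standard. Solubility = (PBS peak area / DMSO peak area) × 50 uM.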

[3] = molecular target: T1, full-length beta-Catenin (Uniprot ID P35222) (Homo sapiens, UniProt P35222); assay: Fluorescence polarization IC50 (beta-catenin / 5FAM-TCF4 10-53 competition); type: binding
T1 construct: 10 nM full-length beta-Catenin (Uniprot ID P35222)
T1 sequence (P35222 1-781): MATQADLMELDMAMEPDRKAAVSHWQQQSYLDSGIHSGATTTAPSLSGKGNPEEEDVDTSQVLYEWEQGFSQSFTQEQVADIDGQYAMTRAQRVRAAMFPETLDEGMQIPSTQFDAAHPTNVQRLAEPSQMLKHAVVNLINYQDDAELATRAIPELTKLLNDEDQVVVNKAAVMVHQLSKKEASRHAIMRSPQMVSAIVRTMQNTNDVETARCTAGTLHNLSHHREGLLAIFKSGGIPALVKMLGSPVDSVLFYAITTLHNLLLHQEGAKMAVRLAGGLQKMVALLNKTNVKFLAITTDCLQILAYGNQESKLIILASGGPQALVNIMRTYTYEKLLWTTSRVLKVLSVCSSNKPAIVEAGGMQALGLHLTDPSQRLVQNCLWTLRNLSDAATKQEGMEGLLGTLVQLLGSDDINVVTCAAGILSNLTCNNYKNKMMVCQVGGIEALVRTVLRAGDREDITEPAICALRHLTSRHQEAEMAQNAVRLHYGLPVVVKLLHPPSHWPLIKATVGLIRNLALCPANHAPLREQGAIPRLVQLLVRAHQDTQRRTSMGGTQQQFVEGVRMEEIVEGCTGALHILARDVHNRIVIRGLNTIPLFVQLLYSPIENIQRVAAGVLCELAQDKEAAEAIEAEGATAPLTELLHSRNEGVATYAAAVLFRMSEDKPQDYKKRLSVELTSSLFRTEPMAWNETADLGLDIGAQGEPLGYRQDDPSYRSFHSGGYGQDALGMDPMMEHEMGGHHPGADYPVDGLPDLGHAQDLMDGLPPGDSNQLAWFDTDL

[4] = fluorescence polarization, read-out: beta-Catenin FP IC50
[5] = fluorescence polarization, beta-catenin, read-out: FP EC50

SMILES | CHI Log D ([1]; pH 7.4) | Solubility [2] | IC50 [3, 4] | IC50 ([3]; read-out: FP EC50) | chromatographic logD ([1]; pH 7.4, CHI Log D) | IC50 ([3]; read-out: beta-Catenin FP IC50) | further results
CC[C@H](C)[C@@H]1NC(=O)[C@H](CC(=O)O)NC(=O)[C@]2(CC=CCCCC3(CCCC=CCCCCCC[C@@](C)(C(=O)N[C@@H](Cc4ccccc4)C(=O)N[C@@H](Cc4csc5ccccc45)C(=O)N[C@@H](CO)C(N)=O)NC(=O)[C@H](CCC(N)=O)NC(=O)[C@H](Cc4ccccc4)NC(=O)[C@H](C)NC(=O)[C@H](C)NC(=O)[C@H](CCC(=O)O)NC(=O)[C@H](CC(=O)O)NC3=O)NC1=O)CCCN2C(C)=O (stereo partly drawn) [I-640, Ac-PL3-Asp-Ile-B5-Asp-Glu-Ala-Ala-Phe-Gln-S8-Phe-BztA-Ser-NH2] | 2.516 | 50 µM (≈ 92.1 µg/mL) | 87 nM | 87 nM | – | – | –
CC(=O)N1CCC[C@]12CC=CCCCC1(CCCC=CCCCCCC[C@@](C)(C(=O)N[C@@H](Cc3ccccc3Cl)C(=O)N[C@@H](Cc3csc4ccccc34)C(=O)N[C@@H](CCC(N)=O)C(N)=O)NC(=O)[C@H](CC(C)C)NC(=O)[C@H](Cc3ccccc3)NC(=O)[C@H](C)NC(=O)[C@H](C)NC(=O)[C@H](CN(CC(=O)O)CC(F)(F)F)NC(=O)[C@H](CC(=O)O)NC1=O)NC(=O)[C@H](CC(C)(C)C)NC(=O)[C@H](CC(=O)O)NC2=O (stereo partly drawn) [I-994, Ac-PL3-Asp-Npg-B5-Asp-TfeGA-Ala-Ala-Phe-Leu-S8-2C1F-BztA-Gln-NH2] | – | 10 µM (≈ 20.1 µg/mL) | – | – | 3.21 | 121 nM | –
CC(=O)N1CCC[C@]12CC=CCCCC1(CCCC=CCCCCCC[C@@](C)(C(=O)N[C@@H](Cc3cccc(F)c3)C(=O)N[C@@H](Cc3csc4ccccc34)C(=O)N[C@@H](CCC(N)=O)C(N)=O)NC(=O)[C@H](C)NC(=O)[C@H](Cc3ccccc3)NC(=O)[C@H](C)NC(=O)[C@H](C)NC(=O)[C@H](CC(=O)O)NC(=O)[C@H](CC(=O)O)NC1=O)NC(=O)[C@H](C)NC(=O)[C@H](CC(=O)O)NC2=O (stereo partly drawn) [I-371, Ac-PL3-Asp-Ala-B5-Asp-Asp-Ala-Ala-Phe-Ala-S8-3FF-BztA-Gln-NH2] | – | – | – | – | 2.14 | – | Solubility ([2]; Solubility (uM)): 48 µM (≈ 85.8 µg/mL); IC50 ([3]; Table E2-1, read-out: beta-Catenin FP IC50): 1390 nM
CCCC[C@@H]1NC(=O)[C@H](CCC(=O)O)NC(=O)[C@H](CC(=O)O)NC(=O)C2(CCCC=CCCCCCC[C@@](C)(C(=O)N[C@@H](Cc3ccccc3)C(=O)N[C@@H](Cc3csc4ccccc34)C(=O)N[C@@H](CCC(N)=O)C(N)=O)NC(=O)[C@H](CCC(N)=O)NC(=O)[C@H](Cc3ccccc3)NC(=O)[C@H](C)NC1=O)CCCC=CC[C@]1(CCCN1C(C)=O)C(=O)N[C@@H](CC(=O)O)C(=O)N[C@@H]([C@@H](C)CC)C(=O)N2 (stereo partly drawn) [I-656, Ac-PL3-Asp-Ile-B5-Asp-Glu-nLeu-Ala-Phe-Gln-S8-Phe-BztA-Gln-NH2] | 2.736 | 40 µM (≈ 77 µg/mL) | 73 nM | 73 nM | – | – | –
CC(=O)N1CCC[C@]12CC=CCCCC1(CCCC=CCCCOC(=O)N3CC[C@@](C(=O)N[C@@H](Cc4ccccc4Cl)C(=O)N[C@@H](Cc4csc5ccccc45)C(=O)N[C@@H](CO)C(N)=O)(C3)NC(=O)[C@H](CC(C)C)NC(=O)[C@H](Cc3ccccc3)NC(=O)[C@H](C)NC(=O)[C@H](C)NC(=O)[C@H](CC(=O)O)NC(=O)[C@H](CC(=O)O)NC1=O)NC(=O)[C@H](CC1CCCCC1)NC(=O)[C@H](CC(=O)O)NC2=O (stereo partly drawn) [I-1112, Ac-PL3-Asp-Cha-B5-Asp-Asp-Ala-Ala-Phe-Leu-PyrS2-2C1F-BztA-Ser-NH2] | – | 10 µM (≈ 19.3 µg/mL) | – | – | 2.72 | 40 nM | –
CC(=O)N1CCC[C@]12CC=CCCCC1(CCCC=CCCCOC(=O)N3CC[C@@](C(=O)N[C@@H](Cc4ccccc4Cl)C(=O)N[C@@H](Cc4csc5ccccc45)C(=O)N[C@@H](CO)C(N)=O)(C3)NC(=O)[C@H](CC(C)C)NC(=O)[C@H](Cc3ccccc3)NC(=O)[C@H](C)NC(=O)[C@H](C)NC(=O)[C@H](CC(=O)O)NC(=O)[C@H](CC(=O)O)NC1=O)NC(=O)[C@H](Cc1ccc3ccccc3c1)NC(=O)[C@H](CC(=O)O)NC2=O (stereo partly drawn) [I-1117, Ac-PL3-Asp-2NapA-B5-Asp-Asp-Ala-Ala-Phe-Leu-PyrS2-2C1F-BztA-Ser-NH2] | – | 10 µM (≈ 19.7 µg/mL) | – | – | 2.61 | 55 nM | –
CC(=O)N1CCC[C@]12CC=CCCCC1(CCCC=CCCCOC(=O)N3CC[C@@](C(=O)N[C@@H](Cc4ccccc4Cl)C(=O)N[C@@H](Cc4csc5ccccc45)C(=O)N[C@H](C(N)=O)[C@@H](C)O)(C3)NC(=O)[C@H](CC(C)C)NC(=O)[C@H](Cc3ccccc3)NC(=O)[C@H](C)NC(=O)[C@H](C)NC(=O)[C@H](CCC(=O)O)NC(=O)[C@H](CC(=O)O)NC1=O)NC(=O)[C@H](CC(C)(C)C)NC(=O)[C@H](CC(=O)O)NC2=O (stereo partly drawn) [I-1071, Ac-PL3-Asp-Npg-B5-Asp-Glu-Ala-Ala-Phe-Leu-PyrS2-2C1F-BztA-Thr-NH2] | 2.218 | 33 µM (≈ 63.8 µg/mL) | – | – | – | 1260 nM | IC50 [3, 5]: 1260 nM
CC(=O)N1CCC[C@]12CC=CCCCC1(CCCC=CCCCCCC[C@@](C)(C(=O)N[C@@H](Cc3ccccc3[N+](=O)[O-])C(=O)N[C@@H](Cc3csc4ccccc34)C(=O)N[C@@H](CCC(N)=O)C(N)=O)NC(=O)[C@H](CC(N)=O)NC(=O)[C@H](Cc3ccccc3)NC(=O)[C@H](C)NC(=O)[C@H](C)NC(=O)[C@H](CCC(=O)O)NC(=O)[C@H](CC(=O)O)NC1=O)NC(=O)[C@H](C)NC(=O)[C@H](CC(=O)O)NC2=O (stereo partly drawn) [I-441, Ac-PL3-Asp-Ala-B5-Asp-Glu-Ala-Ala-Phe-Asn-S8-2NO2F-BztA-Gln-NH2] | – | – | 133 nM | – | 2 | – | Solubility ([2]; Solubility (uM)): 38 µM (≈ 71.1 µg/mL)
CC[C@H](C)[C@@H]1NC(=O)[C@H](CC(=O)O)NC(=O)[C@]2(CC=CCCCC3(CCCC=CCCCCCC[C@@](C)(C(=O)N[C@@H](Cc4ccccc4)C(=O)N[C@@H](Cc4csc5ccccc45)C(=O)N[C@@H](CCC(N)=O)C(N)=O)NC(=O)[C@H](CC(N)=O)NC(=O)[C@H](Cc4ccccc4)NC(=O)[C@H](C)NC(=O)[C@H](C)NC(=O)[C@H](CC(=O)O)NC(=O)[C@H](CC(=O)O)NC3=O)NC1=O)CCCN2C(C)=O (stereo partly drawn) [I-467, Ac-PL3-Asp-Ile-B5-Asp-Asp-Ala-Ala-Phe-Asn-S8-Phe-BztA-Gln-NH2] | 2.255 | 50 µM (≈ 92.8 µg/mL) | 44 nM | 44 nM | – | – | –
CC(=O)N1CCC[C@]12CC=CCCCC1(CCCC=CCCCCCC[C@@](C)(C(=O)N[C@@H](Cc3ccccc3)C(=O)N[C@@H](Cc3csc4ccccc34)C(=O)N[C@@H](Cc3c[nH]cn3)C(N)=O)NC(=O)[C@H](CCC(N)=O)NC(=O)[C@H](Cc3ccccc3)NC(=O)[C@H](C)NC(=O)[C@H](C)NC(=O)[C@H](CC(=O)O)NC(=O)[C@H](CC(=O)O)NC1=O)NC(=O)[C@H](CC(C)C)NC(=O)[C@H](CC(=O)O)NC2=O (stereo partly drawn) [I-561, Ac-PL3-Asp-Leu-B5-Asp-Asp-Ala-Ala-Phe-Gln-S8-Phe-BztA-His-NH2] | 2.437 | 14 µM (≈ 26.3 µg/mL) | 34 nM | 34 nM | – | – | –
CC(=O)N1CCC[C@]12CC=CCCCC1(CCCC=CCCCCCC[C@@](C)(C(=O)N[C@@H](Cc3ccccc3)C(=O)N[C@@H](Cc3c[nH]c4ccccc34)C(=O)N[C@@H](CCC(N)=O)C(N)=O)NC(=O)[C@H](C(C)C)NC(=O)[C@H](Cc3ccccc3)NC(=O)[C@H](C)NC(=O)[C@H](C)NC(=O)[C@H](C)NC(=O)[C@H](CC(=O)O)NC1=O)NC(=O)[C@H](C)NC(=O)[C@H](CC(=O)O)NC2=O (stereo partly drawn) [I-352, Ac-PL3-Asp-Ala-B5-Asp-Ala-Ala-Ala-Phe-Val-S8-Phe-Trp-Gln-NH2] | – | 10 µM (≈ 17.4 µg/mL) | – | – | – | – | chromatographic logD ([1]; pH 7.4): 2.51; IC50 ([3]; beta-Catenin FP IC50 (nM), Table E2-1): 5000 nM
CC(=O)N1CCC[C@]12CC=CCCCC1(CCCC=CCCCOC(=O)N3CC[C@@](C(=O)N[C@@H](Cc4ccccc4Cl)C(=O)N[C@@H](Cc4csc5ccccc45)C(=O)N[C@@H](CCC(N)=O)C(N)=O)(C3)NC(=O)[C@H](CC(C)C)NC(=O)[C@H](Cc3ccccc3)NC(=O)[C@H](C)NC(=O)[C@H](C)NC(=O)[C@H](CCC(=O)O)NC(=O)[C@H](CC(=O)O)NC1=O)NC(=O)[C@H](CC1CCCCC1)NC(=O)[C@H](CC(=O)O)NC2=O (stereo partly drawn) [I-1077, Ac-PL3-Asp-Cha-B5-Asp-Glu-Ala-Ala-Phe-Leu-PyrS2-2C1F-BztA-Gln-NH2] | 2.06 | 10 µM (≈ 19.9 µg/mL) | – | – | – | 324 nM | IC50 [3, 5]: 324 nM
CC(=O)N1CCC[C@]12CC=CCCCC1(CCCC=CCCCCCC[C@@](C)(C(=O)N[C@@H](Cc3ccsc3)C(=O)N[C@@H](Cc3csc4ccccc34)C(=O)N[C@@H](CCC(N)=O)C(N)=O)NC(=O)[C@H](CCC(N)=O)NC(=O)[C@H](Cc3ccccc3)NC(=O)[C@H](C)NC(=O)[C@H](C)NC(=O)[C@H](CCC(=O)O)NC(=O)[C@H](CC(=O)O)NC1=O)NC(=O)[C@H](C)NC(=O)[C@H](CC(=O)O)NC2=O (stereo partly drawn) [I-427, Ac-PL3-Asp-Ala-B5-Asp-Glu-Ala-Ala-Phe-Gln-S8-3Thi-BztA-Gln-NH2] | 1.985 | 50 µM (≈ 92.4 µg/mL) | 38.5 nM | 38.5 nM | – | – | –
